These results are taken from patent US7943628B2, “Pyrimidine derivatives” (Pfizer Limited, priority 2005, dated 2011).

One experiment deals with T1, histamine H4 receptor (Homo sapiens, UniProt Q9H3N8).
T1 construct: expressed in transfected cells; host or cells: CHO cells
T1 sequence (Q9H3N8 whole entry): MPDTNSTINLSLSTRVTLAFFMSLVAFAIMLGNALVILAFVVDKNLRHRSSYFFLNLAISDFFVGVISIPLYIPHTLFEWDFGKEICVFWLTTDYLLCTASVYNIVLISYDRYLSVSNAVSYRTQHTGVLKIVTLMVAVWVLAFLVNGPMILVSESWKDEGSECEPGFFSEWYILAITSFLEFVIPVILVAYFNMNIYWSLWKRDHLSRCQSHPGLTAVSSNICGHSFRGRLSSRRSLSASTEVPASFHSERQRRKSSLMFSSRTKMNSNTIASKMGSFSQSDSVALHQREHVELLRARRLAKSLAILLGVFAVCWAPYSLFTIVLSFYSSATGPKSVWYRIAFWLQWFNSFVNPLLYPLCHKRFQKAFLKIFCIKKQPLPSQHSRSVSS
Put plainly: H4 binding, method 1 ([3H]-histamine filtration binding on CHO cell membranes). The following applies: H4 binding, method 1; Ki calculated from IC50 (Cheng-Prussoff). The essentials:
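Membranes from CHO cells expressing human H4 receptor (20-35 μg/well) incubated 90 min at room temperature with 3 nM [3H]-histamine in 50 mM Tris-HCl pH 7.4, ± competitor. Bound label separated by filtration on PEI-soaked GF/B filters and counted by scintillation; non-specific binding with 10 μM JNJ7777120.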
Regarding `CC(C)(C)CNc1cc(N2C[C@H]3CCCN[C@H]3C2)nc(N)n1` (racemic) [Example 30, N^4-(2,2-Dimethylpropyl)-6-[(4aR*,7aR*)-octahydro-6H-pyrrolo[3,4-b]pyridin-6-yl] pyrimidine-2,4-diamine], the Ki is 3.06 nM.
As to `CN1CCN(c2cc(NCCC(C)(C)C)ncn2)CC1` [Example 1, N-(3,3-Dimethylbutyl)-6-(4-methylpiperazin-1-yl)pyrimidin-4-amine], the Ki was 82.3 nM.
Turning to `CN[C@@H]1CCN(c2cc(NCC3CC3)nc(N)n2)C1` [Example 9, N^4-(Cyclopropylmethyl)-6-[(3R)-3-(methylamino)pyrrolidin-1-yl]pyrimidine-2,4-diamine], the Ki was 2.7 nM.
The same measure, in the same setting: then `CN[C@@H]1CCN(c2cc(NCC(C)(C)C)nc(N)n2)C1` [Example 11, N^4-(2,2-Dimethylpropyl)-6-[(3R)-3-(methylamino)pyrrolidin-1-yl] pyrimidine-2,4-diamine], with 10.6 nM.

Another experiment addresses T1, histamine H4 receptor. Put plainly: H4 binding, method 2 ([3H]-histamine binding with Ysi WGA beads on CHO cell membranes). The following applies: H4 binding, method 2; Ki calculated from IC50 (Cheng-Prussoff); read-out: Method 2 (Ki (nM)). On the procedure:
Cell pellets from CHO cells expressing the histamine H4 receptor were homogenised in ice-cold 50 mM Tris-HCl/0.5 mM CaCl2 buffer containing a protease inhibitor cocktail (Roche®, United Kingdom) using a ground glass homogeniser. Homogenates were centrifuged at 48000 g for 30 min at 4° C. The membrane pellet was resuspended in fresh buffer and the centrifugation step was repeated as described above. The membrane pellet was resuspended in 50 mM Tris-HCl in the same volume as the original cell pellet. Aliquots of membrane preparations were stored at −80° C. and were used for [^3H]-Histamine binding experiments.
Cell membranes (15 μg/well) were pre-incubated for 120 min shaking at 4° C. with Ysi WGA beads (250 μg/well) in 50 mM Tris-HCl (pH 7.4) followed by centrifugation at 1500 rpm for 5 minutes and resuspension in 50 mM Tris-HCl (pH 7.4). The membrane/bead mixture (15 μg membrane/250 μg beads well) was incubated for 90 minutes shaking at room temperature with 6.5 nM [2,5-^3H] Histamine dihydrochloride (30-60 Ci/mmol) in 50 mM Tris-HCl (pH 7.4), with or without competing H4 ligands. Non-specific binding was defined with 10 μM JNJ7777120. Bound radiolabel was determined using scintillation counting techniques after 90 minutes.
In the case of `CN1CCN(c2cc(NCCC(C)(C)C)ncn2)CC1` [Example 1, N-(3,3-Dimethylbutyl)-6-(4-methylpiperazin-1-yl)pyrimidin-4-amine], the inhibition constant Ki was 335 nM.
Take `CN[C@@H]1CCN(c2cc(NCC3CC3)nc(N)n2)C1` [Example 9, N^4-(Cyclopropylmethyl)-6-[(3R)-3-(methylamino)pyrrolidin-1-yl]pyrimidine-2,4-diamine]: the Ki was 19.3 nM.
Still for that read-out and setting: then `CN[C@@H]1CCN(c2cc(NCC(C)(C)C)nc(N)n2)C1` [Example 11, N^4-(2,2-Dimethylpropyl)-6-[(3R)-3-(methylamino)pyrrolidin-1-yl] pyrimidine-2,4-diamine], with 31.6 nM.
With `CC(C)CCNc1cc(N2CCN(C)CC2)nc(N)n1` [Example 108, N^4-(3-Methylbutyl)-6-(4-methylpiperazin-1-yl)pyrimidine-2,4-diamine], the Ki is 8.42 nM.
`CN[C@@H]1CCN(c2cc(NCCC(C)(C)C)ncn2)C1` [Example 109, N-(3,3-Dimethylbutyl)-6-[(3R)-3-(methylamino)pyrrolidin-1-yl]pyrimidin-4-amine]: the Ki is 42.7 nM.
With `COCCNc1cc(N2CCN(C)CC2)ncn1` [Example 110, N-(2-Methoxyethyl)-6-(4-methylpiperazin-1-yl)pyrimidin-4-amine], the Ki was 829 nM.
As to `CN1CCN(c2cc(NC[C@@H]3CCCO3)ncn2)CC1` [Example 112, 6-(4-Methylpiperazin-1-yl)-N-[(2S)-tetrahydrofuran-2-ylmethyl]pyrimidin-4-amine], the Ki was 635 nM.
For `CN1CCN(c2cc(NC[C@H]3CCCO3)ncn2)CC1` [Example 113, 6-(4-Methylpiperazin-1-yl)-N-[(2R)-tetrahydrofuran-2-ylmethyl]pyrimidin-4-amine], the Ki is 1480 nM.
Regarding `CN1CCN(c2cc(N3CCCC3)ncn2)CC1` [Example 114, 4-(4-Methylpiperazin-1-yl)-6-pyrrolidin-1-ylpyrimidine], the Ki is 1030 nM.
As to `CN1CCN(c2cc(NCCC(F)(F)F)ncn2)CC1` [Example 115, 6-(4-Methylpiperazin-1-yl)-N-(3,3,3-trifluoropropyl)pyrimidin-4-amine], the Ki is 494 nM.
In the case of `Cc1c(NCC(C)C)ncnc1N1CCN(C)CC1` [Example 116, N-Isobutyl-5-methyl-6-(4-methylpiperazin-1-yl)pyrimidin-4-amine], the Ki was 426 nM.
For the compound `CCNc1cc(N2C[C@H]3CN(C)C[C@H]3C2)ncn1` [Example 117, N-Ethyl-6-[(3aR*,6aS*)-5-methylhexahydropyrrolo[3,4-c]pyrrol-2(1H)-yl]pyrimidin-4-amine], the Ki was 1620 nM.
As for `CC(C)(C)CCNc1cc(N2CC(N)C2)ncn1` [Example 118, 6-(3-Aminoazetidin-1-yl)-N-(3,3-dimethylbutyl)pyrimidin-4-amine], the Ki is 1090 nM.
As to `C[C@@H]1CN(c2cc(NCCC(C)(C)C)nc(N)n2)CCN1C` [Example 124, N^4-(3,3-Dimethylbutyl)-6-[(3R)-3,4-dimethylpiperazin-1-yl]pyrimidine-2,4-diamine], the inhibition constant Ki was 537 nM.
Still for that read-out and setting: the figure for `CC(C)(C)CNc1cc(N2C[C@@H]3[C@@H](N)[C@@H]3C2)nc(N)n1` [Example 126, 6-[(1R*,5S*,6s*)-6-Amino-3-azabicyclo[3.1.0]hex-3-yl]-N^4-(2,2-dimethylpropyl)pyrimidine-2,4-diamine] is 611 nM.
In the case of `CC(C)(C)CNc1cc(N2CCC(N3CCCC3)C2)nc(N)n1` (stereo not drawn) [Example 327, 6-[(3-S)-1,3′-Bipyrrolidin-1′-yl]-N^4-(2,2-dimethylpropyl)pyrimidine-2,4-diamine], the Ki is 376 nM.
With `CC(C)CCNc1cc(N[C@@H]2CCNC2)ncn1` [Example 329, N-(3-Methylbutyl)-N′-[(3R)-pyrrolidin-3-yl]pyrimidine-4,6-diamine], the Ki is 1420 nM.
Still for that read-out and setting: the figure for `CN1CCN(c2cc(NCCC(C)(C)C)nc(N(C)C)n2)CC1` [Example 330, N^4-(3,3-Dimethylbutyl)-N^2,N^2-dimethyl-6-(4-methylpiperazin-1-yl)pyrimidine-2,4-diamine] is 1440 nM; for `Cc1c(NC(C)C)ncnc1N1CCN(C)CC1` [Example 331, N-isoPropyl-5-methyl-6-(4-methylpiperazin-1-yl)pyrimidin-4-amine] it is 2670 nM.
`CC(C)(C)CCNc1cc(N2CC[C@H](N3CCCC3)C2)nc(N)n1` [Example 332, 6-[(3′S)-1,3′-Bipyrrolidin-1′-yl]-N^4-(3,3-dimethylbutyl)pyrimidine-2,4-diamine]: the Ki was 2690 nM.
Regarding `CC(C)(C)CCNc1cc(N2CC3C(N)C3C2)nc(N)n1` (stereo not drawn) [Example 333, 6-[(1R*,5S*,6s*)-6-Amino-3-azabicyclo[3.1.0]hex-3-yl]-N^4-(3,3-dimethylbutyl)pyrimidine-2,4-diamine], the Ki was 3120 nM.
Take `CN1CCN(c2cc(N(C)CC3CC3)ncn2)CC1` [Example 334, N-(Cyclopropylmethyl)-N-methyl-6-(4-methylpiperazin-1-yl)pyrimidin-4-amine]: the Ki was 5070 nM.
As to `COCCNc1cc(N[C@@H]2CCNC2)ncn1` [Example 335, N-(2-Methoxyethyl)-N′-[(3R)-pyrrolidin-3-yl]pyrimidine-4,6-diamine], the Ki is 5350 nM.
`CNC1CN(c2cc(N3CCCC3)ncn2)C1` [Example 336, N-Methyl-1-(6-pyrrolidin-1-ylpyrimidin-4-yl)azetidin-3-amine]: the inhibitory constant (Ki) was 6330 nM.
`c1ccc(CNc2cc(N[C@@H]3CCNC3)ncn2)cc1` [Example 337, N-Benzyl-N′-[(3R)-pyrrolidin-3-yl]pyrimidine-4,6-diamine]: the Ki was 7220 nM.
Same read-out and setting: then `CC(C)(C)CCNc1cc(N[C@H]2CCN(Cc3ccccc3)C2)nc(N)n1` [Example 338, N^4-[(3S)-1-Benzylpyrrolidin-3-yl]-N6-(3,3-dimethylbutyl)pyrimidine-2,4,6-triamine], with 7930 nM; and `CNc1nc(NCCC(C)(C)C)cc(N2CCN(C)CC2)n1` [Example 339, N^4-(3,3-Dimethylbutyl)-N^2-methyl-6-(4-methylpiperazin-1-yl)pyrimidine-2,4-diamine], with 9070 nM.
In the case of `c1nc(NC[C@@H]2CCCO2)cc(N[C@@H]2CCNC2)n1` [Example 341, N-[(3R)-Pyrrolidin-3-yl]-N′-[(2S)-tetrahydrofuran-2-ylmethyl]pyrimidine-4,6-diamine], the Ki was 16300 nM.
In the case of `c1ccc(CCNc2cc(N[C@@H]3CCNC3)ncn2)cc1` [Example 346, N-(2-Phenylethyl)-N′-[(3R)-pyrrolidin-3-yl]pyrimidine4,6-diamine], the Ki is 38400 nM.
With “N-Methyl-6-[3-(methylamino)azetidin-1- yl]pyrimidin-4-amine [Example 58]”, the Ki is 301 nM.

The same experiment, now with this note: Method 2 (Ki (nM)), H4 binding, method 2; Ki calculated from IC50 (Cheng-Prussoff).
Take `CC(C)(C)CNc1cc(N2C[C@H]3CCCN[C@H]3C2)nc(N)n1` (racemic) [Example 30, N^4-(2,2-Dimethylpropyl)-6-[(4aR*,7aR*)-octahydro-6H-pyrrolo[3,4-b]pyridin-6-yl] pyrimidine-2,4-diamine]: the Ki is 19.3 nM.
For `CCNc1cc(N2CCN[C@@H](C)C2)nc(N)n1` [Example 98, N^4-Ethyl-6-[(3S)-3-methylpiperazin-1-yl]pyrimidine-2,4-diamine], the Ki is 56.2 nM.
Same read-out and setting: then `CC(C)(C)CNc1cc(N2CCN3CCCC3C2)nc(N)n1` (stereo not drawn) [Example 141, N^4-(2,2-Dimethylpropyl)-6-(hexahydropyrrolo[1,2-a]pyrazin-2(1H)-yl)pyrimidine-2,4-diamine], with 4.97 nM.

Staying with this experiment, now noted: at 40 μM.
As for `CC(C)(C)CCNc1cc(N2CCC(N)CC2)ncn1` [Example 340, 6-(4-Aminopiperidin-1-yl)-N-(3,3-dimethylbutyl)pyrimidin-4-amine], the “Method 2, % at 40 μM” value was found to be 50% at 40 μM.
Take `CC(C)(C)CCNc1cc(N2CC[C@H](N3CCCC3)C2)ncn1` [Example 342, 6-[(3′S)-1,3′-Bipyrrolidin-1′-yl]-N-(3,3-dimethylbutyl)pyrimidin-4-amine]: the “Method 2, % at 40 μM” value is given as 13% at 40 μM.
For the compound `CN1CCC(Nc2cc(NCCC(C)(C)C)ncn2)CC1` [Example 343, N-(3,3-Dimethylbutyl)-N′-(1-methylpiperidin-4-yl)pyrimidine-4,6-diamine], the “Method 2, % at 40 μM” value was 53% at 40 μM.
As to `COCCNc1cc(N[C@H]2CCNC2)ncn1` [Example 344, N-(2-Methoxyethyl)-N′-[(3S)-pyrrolidin-3-yl]pyrimidine-4,6-diamine], the “Method 2, % at 40 μM” value came to 40% at 40 μM.
On to `c1nc(NC[C@H]2CCCO2)cc(N[C@@H]2CCNC2)n1` [Example 345, N-[(3R)-Pyrrolidin-3-yl]-N′-[(2R)-tetrahydrofuran-2-ylmethyl]pyrimidine-4,6-diamine], for which the “Method 2, % at 40 μM” value was determined as 49% at 40 μM.
